Test results from patent US20110009421A1, “COMPOUND HAVING 6-MEMBERED AROMATIC RING” (TAKEDA PHARMACEUTICAL COMPANY LIMITED, priority 2008, published 2011).
Structures can show the parent of a compound that is named as a salt.

biological target: T1, human GPR52 (Homo sapiens, UniProt Q9Y2T5); experiment: Increased intracellular cAMP levels in human GPR52 expression CHO cells (AlphaScreen cAMP assay); format: cell-based; conditions: 1 μM test compound, 30 min at 37° C., human GPR52 expression CHO (dhfr−) cells; intracellular cAMP level, 100% = 1 μM 3-(6-(2-(3,4-dimethoxyphenyl)ethoxy)pyridin-2-yl)-N-(2-pyrrolidin-1-ylethyl)benzamide, 0% = DMSO
T1 construct: expressed in transfected cells; host or cells: CHO (dhfr-) cells
Procedure: Increased Intracellular cAMP Levels in Human GPR52 Expression CHO Cells
1×10^4 human GPR52 expression CHO (dhfr−) cells were incubated with 1 μM test compound for 30 min at 37° C. in 30 μL assay buffer (HBSS (containing Ca^2+ and Mg^2+), 0.5% BSA, 100 μM IBMX, 100 μM Ro 20-1724, 5 mM HEPES (pH 7.55)) using an OptiPlate-384 (by PerkinElmer). The intracellular cAMP level was then assayed with an EnVision (by PerkinElmer) according to the protocol of the AlphaScreen cAMP Assay Kit (by PerkinElmer). The GPR52 agonist activity was calculated, assuming the intracellular cAMP level to be 100% in the presence of 1 μM of 3-(6-(2-(3,4-dimethoxyphenyl)ethoxy)pyridin-2-yl)-N-(2-pyrrolidin-1-ylethyl)benzamide obtained in Reference Example 39 and assuming the intracellular cAMP level to be 0% when DMSO was added instead of test compound.

T1 sequence (Q9Y2T5 whole entry): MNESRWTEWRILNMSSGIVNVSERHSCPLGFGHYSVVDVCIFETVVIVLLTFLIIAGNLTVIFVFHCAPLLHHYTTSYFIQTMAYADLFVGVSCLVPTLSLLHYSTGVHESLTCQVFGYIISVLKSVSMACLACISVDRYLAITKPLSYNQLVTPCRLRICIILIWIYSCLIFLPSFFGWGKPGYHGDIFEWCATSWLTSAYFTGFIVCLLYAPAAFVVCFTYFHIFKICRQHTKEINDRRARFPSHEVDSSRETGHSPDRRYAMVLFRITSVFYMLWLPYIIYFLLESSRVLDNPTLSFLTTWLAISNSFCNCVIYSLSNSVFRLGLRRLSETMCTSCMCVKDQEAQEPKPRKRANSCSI

Compound	GPR52 agonist activity (%)
COc1ccc(CCNc2nccc(-c3cccc(NC(C)=O)c3)n2)cc1OC [Working Example 1, N-(3-(2-(2-(3,4-dimethoxyphenyl)ethylamino)pyrimidin-4-yl)phenyl)acetamide]	69
COc1cccc(C(=O)Nc2cccc(-c3ccnc(NCCc4ccc(OC)c(OC)c4)n3)c2)c1 [Working Example 12, N-(3-(2-(2-(3,4-dimethoxyphenyl)ethylamino)pyrimidin-4-yl)phenyl)-3-methoxybenzamide]	47
COc1ccc(CCNc2nccc(-c3cccc(NC(=O)CCCN4CCCC4)c3)n2)cc1OC [Working Example 19]	85
COc1ccc(CCNc2nccc(-c3cccc(NC(=O)C4CCNCC4)c3)n2)cc1OC [Working Example 22, N-(3-(2-((2-(3,4-dimethoxyphenyl)ethyl)amino)pyrimidin-4-yl)phenyl)piperidine-4-carboxamide hydrochloride]	80
COc1ccc(CCNc2nccc(-c3cccc(NC(=O)CC4CCCN4)c3)n2)cc1OC (stereo not drawn) [Working Example 25, N-(3-(2-((2-(3,4-Dimethoxyphenyl)ethyl)amino)pyrimidin-4-yl)phenyl)-2-pyrrolidin-2-yl acetamide hydrochloride]	71
COc1ccc(CCNc2nccc(-c3cccc(NC(=O)CC4CCCN4C)c3)n2)cc1OC (stereo not drawn) [Working Example 28, N-(3-(2-((2-(3,4-dimethoxyphenyl)ethyl)amino)pyrimidin-4-yl)phenyl)-2-(1-methylpyrrolidin-2-yl)acetamide hydrochloride]	74
COc1ccc(CCNc2nccc(-c3cccc(NC(=O)CCN(C)C)c3)n2)cc1OC [Working Example 29, N-(3-(2-((2-(3,4-dimethoxyphenyl)ethyl)amino)pyrimidin-4-yl)phenyl)-N^3,N^3-dimethyl-β-alaninamide]	85
COc1ccc(CCNc2nccc(-c3cccc(NC(=O)CCCN4CCCCC4)c3)n2)cc1OC [Working Example 31, N-(3-(2-(2-(3,4-Dimethoxy-phenyl)ethylamino)pyrimidin-4-yl)phenyl)-4-(piperidin-1-yl)butanamide]	98
COc1ccc(CCNc2nccc(-c3cccc(C(=O)N(C)CCCN(C)C)c3)n2)cc1OC [Working Example 37, 3-(2-(2-(3,4-Dimethoxyphenyl)ethylamino)pyrimidin-4-yl)-N-(3-dimethylaminopropyl)-N-methylbenzamide hydrochloride]	92
COc1ccc(CCOc2cccc(-c3cccc(C(=O)NCCN4CCCC4)c3)n2)cc1OC [Working Example 39, 3-(6-(2-(3,4-dimethoxyphenyl)ethoxy)pyridin-2-yl)-N-(2-pyrrolidin-1-ylethyl)benzamide]	106
COc1ccc(CCOc2cccc(-c3cccc(C(=O)NCCN4CCCC4)c3)c2)cc1OC [Working Example 40, 3′-(2-(3,4-Dimethoxyphenyl)ethoxy)-N-(2-pyrrolidin-1-ylethyl)biphenyl-3-carboxamide]	87
COc1ccc(CCOc2cccc(-c3cccc(C(=O)NC4CCOCC4)c3)n2)cc1OC [Working Example 41, 3-(6-(2-(3,4-Dimethoxyphenyl)ethoxy)pyridin-2-yl)-N-(tetrahydro-2H-pyran-4-yl)benzamide]	56
COc1ccc(CCOc2cc(-c3cccc(C(=O)NCCN4CCCC4)c3)ccn2)cc1OC [Working Example 42, 3-(2-(2-(3,4-Dimethoxyphenyl)ethoxy)pyridin-4-yl)-N-(2-pyrrolidin-1-ylethyl)benzamide]	71
COc1ccc(CCOc2cncc(-c3cccc(C(=O)NCCN4CCCC4)c3)c2)cc1OC [Working Example 44, 3-(5-(2-(3,4-Dimethoxyphenyl)ethoxy)pyridin-3-yl)-N-(2-pyrrolidin-1-ylethyl)benzamide]	68
COc1ccc(CCOc2ccnc(-c3cccc(C(=O)NCCN4CCCC4)c3)n2)cc1OC [Working Example 45, 3-(4-(2-(3,4-Dimethoxyphenyl)ethoxy)pyrimidin-2-yl)-N-(2-pyrrolidin-1-ylethyl)benzamide]	85
COc1ccc(CCOc2nccc(-c3cccc(C(=O)NCCN4CCCC4)c3)n2)cc1OC [Working Example 46, 3-(2-(2-(3,4-Dimethoxyphenyl)ethoxy)pyrimidin-4-yl)-N-(2-pyrrolidin-1-ylethyl)benzamide]	99
COc1ccc(CCOc2cccc(-c3cccc(C(N)=O)c3)n2)cc1OC [Working Example 49]	55

Compound	GPR52 agonist activity (%)
COc1ccc(CCOc2cccc(-c3cccc(NC(=O)NCCN(C)C)c3)n2)cc1OC [Working Example 53]	113
Cc1cccc(CCOc2cccc(-c3cccc(C(=O)NCCO)c3)n2)c1 [Working Example 59, N-(2-Hydroxyethyl)-3-(6-(2-(3-methylphenyl)ethoxy)pyridin-2-yl)benzamide]	84
O=C(Nc1nccs1)c1cccc(-c2cccc(OCCc3cccc(F)c3)n2)c1 [Working Example 61, 3-(6-(2-(3-Fluorophenyl)ethoxy)pyridin-2-yl)-N-1,3-thiazol-2-ylbenzamide]	43
O=C(NCCO)c1cccc(-c2cccc(OCCc3cccc(C(F)(F)F)c3)n2)c1 [Working Example 65, N-(2-hydroxyethyl)-3-(6-(2-(3-(trifluoromethyl)phenyl)ethoxy)pyridin-2-yl)benzamide]	64
COc1cccc(CCOc2cccc(-c3cccc(C(=O)NC4CCOCC4)c3)n2)c1 [Working Example 67, 3-(6-(2-(3-Methoxyphenyl)ethoxy)pyridin-2-yl)-N-(tetrahydro-2H-pyran-4-yl)benzamide]	48
COc1cccc(CCOc2cccc(-c3cccc(C(=O)NCCO)c3)n2)c1 [Working Example 69, N-(2-hydroxyethyl)-3-(6-(2-(3-methoxyphenyl)ethoxy)pyridin-2-yl)benzamide]	65
COc1cccc(CCOc2cccc(-c3cccc(C(=O)Nc4ccc(F)nc4)c3)n2)c1 [Working Example 75, N-(6-Fluoropyridin-3-yl)-3-(6-(2-(3-methoxyphenyl)ethoxy)pyridin-2-yl)benzamide]	60
COc1cccc(CCOc2cccc(-c3cccc(C(=O)Nc4ccccn4)c3)n2)c1 [Working Example 76, 3-(6-(2-(3-Methoxyphenyl)ethoxy)pyridin-2-yl)-N-pyridin-2-ylbenzamide]	52
O=C(NCCN1CCCC1)c1cccc(-c2cccc(Oc3ccc(Cl)c(Cl)c3)n2)c1 [Working Example 82, 3-(6-(3,4-Dichlorophenoxy)pyridin-2-yl)-N-(2-pyrrolidin-1-ylethyl)benzamide]	64
O=C(NCCN1CCCC1)c1cccc(-c2cccc(Oc3cccc(Cl)c3Cl)n2)c1 [Working Example 83, 3-(6-(2,3-Dichlorophenoxy)pyridin-2-yl)-N-(2-pyrrolidin-1-ylethyl)benzamide]	97
O=C(NCCO)c1cccc(-c2cccc(Oc3cc(Cl)cc(Cl)c3)n2)c1 [Working Example 87, 3-(6-(3,5-dichlorophenoxy)pyridin-2-yl)-N-(2-hydroxyethyl)benzamide]	79
O=C(NCCCO)c1cccc(-c2cccc(Oc3cc(Cl)cc(Cl)c3)n2)c1 [Working Example 88, 3-(6-(3,5-Dichlorophenoxy)pyridin-2-yl)-N-(3-hydroxypropyl)benzamide]	62
CC(C)(CO)NC(=O)c1cccc(-c2cccc(Oc3cc(Cl)cc(Cl)c3)n2)c1 [Working Example 91, 3-(6-(3,5-Dichlorophenoxy)pyridin-2-yl)-N-(2-hydroxy-1,1-dimethylethyl)benzamide]	61
C[C@H](CC#N)NC(=O)c1cccc(-c2cccc(Oc3cc(Cl)cc(Cl)c3)n2)c1 [Working Example 94, N-((1R)-2-Cyano-1-methylethyl)-3-(6-(3,5-dichlorophenoxy)pyridin-2-yl)benzamide]	58
C[S+]([O-])CCNC(=O)c1cccc(-c2cccc(Oc3cc(Cl)cc(Cl)c3)n2)c1 (stereo not drawn) [Working Example 96, 3-(6-(3,5-dichlorophenoxy)pyridin-2-yl)-N-(2-(methylsulfinyl)ethyl)benzamide]	66
O=C(NCCO)c1cccc(-c2cccc(Sc3ccc(Cl)cc3Cl)n2)c1 [Working Example 101, 3-(6-((2,4-dichlorophenyl)thio)pyridin-2-yl)-N-(2-hydroxyethyl)benzamide]	53
